Data as given in patent publication US9540391B2, “Isomannide derivatives as inhibitors of soluble epoxide hydrolase” (SANOFI, priority 2013, dated 2017).
Counter-ions that a name gives are not always drawn.

Molecular target: T1, recombinant sEH (Homo sapiens, UniProt P34913)
T1 construct: made in house; host or cells: Sf9 insect cells
T1 sequence (P34913 1-555): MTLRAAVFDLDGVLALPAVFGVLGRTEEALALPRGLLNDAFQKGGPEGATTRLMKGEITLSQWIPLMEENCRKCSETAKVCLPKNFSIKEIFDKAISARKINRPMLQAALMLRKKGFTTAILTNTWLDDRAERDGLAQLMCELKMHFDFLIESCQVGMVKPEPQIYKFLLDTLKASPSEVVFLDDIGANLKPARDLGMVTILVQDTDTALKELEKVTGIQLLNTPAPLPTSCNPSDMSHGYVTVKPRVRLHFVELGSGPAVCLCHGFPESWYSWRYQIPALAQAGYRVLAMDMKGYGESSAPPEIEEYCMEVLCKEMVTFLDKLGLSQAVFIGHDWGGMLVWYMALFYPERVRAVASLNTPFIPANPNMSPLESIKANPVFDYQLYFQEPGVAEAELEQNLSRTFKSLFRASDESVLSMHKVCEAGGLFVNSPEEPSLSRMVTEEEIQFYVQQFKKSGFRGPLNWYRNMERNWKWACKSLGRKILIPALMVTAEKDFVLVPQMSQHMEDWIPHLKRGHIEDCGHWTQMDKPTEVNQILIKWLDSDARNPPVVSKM
Assay: biochemical screening assay for inhibition of soluble epoxide hydrolase (fluorometric, Phome substrate)
Procedure, shortened: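 Human sEH from Sf9 cells (2 nM final) was pre-incubated 15 min at 30 °C with compound (0.0001–10 μM), then reacted 60 min at 30 °C with 5 μM Phome in 25 mM Hepes/0.01% albumin. Fluorescence of released 6-methoxy-2-naphthaldehyde was read before substrate and at end; IC50 from % inhibition.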

SMILES | IC50 [nM]
O=C(Nc1ccccc1)NC1COC2C(C#Cc3ccsc3)COC12 [Example 303, 1-Phenyl-3-((3S,3aR,6S,-6aR)-6-thiophen-3-ylethynyl-hexahydro-furo[3,2-b]furan-3-yl)-urea] | 241
CCCCOc1ccc(NC(=O)NC2COC3C(C=Cc4ccccc4)COC23)cc1 [Example 320, 1-(4-Butoxy-phenyl)-3-[(3S,3aR,6R)-6-((S)-(Z)-styryl)-hexahydro-furo[3,2-b]furan-3-yl]-urea] | 140
O=C(Nc1ccc(OC(F)(F)F)cc1)N[C@H]1CO[C@H]2[C@@H]1OC[C@@H]2C#Cc1ccccc1 [Example 298, 1-((3S,3aR,6S,6aR)-6-Phenylethynyl-hexahydro-furo[3,2-b]furan-3-yl)-3-(4-trifluoromethoxy-phenyl)-urea] | 25
Cc1ncccc1O[C@H]1CO[C@H]2[C@@H]1OC[C@@H]2NC(=O)NCC1COCCO1 (stereo partly drawn) [Example 194, 1-[1,4]Dioxan-2-ylmethyl-3-[(3S,3aR,6S,6aS)-6-(2-methyl-pyridin-3-yloxy)-hexahydro-furo[3,2-b]furan-3-yl]-urea] | 1470
Cc1cc(C)c(S[C@H]2CO[C@H]3[C@@H]2OC[C@@H]3NC(=O)NC2CCCCC2)cn1 [Example 53, 1-Cyclohexyl-3-[(3S,3aR,6S,6aS)-6-(4,6-dimethyl-pyridin-3-ylsulfanyl)-hexahydro-furo[3,2-b]furan-3-yl]-urea] | < 1
O=C(NC1CCCCC1)N[C@H]1CO[C@H]2[C@@H]1OC[C@@H]2Oc1cccc(C(F)(F)F)c1 [Example 125, 1-Cyclohexyl-3-[(3S,3aR,6S,6aS)-6-(3-trifluoromethyl-phenoxy)-hexa-hydro-furo[3,2-b]furan-3-yl]-urea] | 3
Cc1ncccc1O[C@H]1CO[C@H]2[C@@H]1OC[C@@H]2NC(=O)NC1CCC(C(C)(C)C)CC1 (stereo partly drawn) [Example 260, 1-(4-tert-Butyl-cyclohexyl)-3-[(3S,3aR,6S,6aS)-6-(2-methyl-pyridin-3-yloxy)-hexahydro-furo[3,2-b]furan-3-yl]-urea] | 8
Cc1cccc(CNC(=O)N[C@H]2CO[C@H]3[C@@H]2OC[C@@H]3/C=C\c2ccsc2)c1 [Example 339, 1-(3-Methyl-benzyl)-3-[(3S,3aR,6S,6aR)-6-((Z)-2-thiophen-3-yl-vinyl)-hexahydro-furo[3,2-b]furan-3-yl]-urea] | 418
Cc1csc(CNC(=O)N[C@H]2CO[C@H]3[C@@H]2OC[C@@H]3Oc2cccnc2C)n1 [Example 199, 1-[(3S,3aR,6S,6aS)-6-(2-Methyl-pyridin-3-yloxy)-hexahydro-furo[3,2-b]furan-3-yl]-3-(4-methyl-thiazol-2-ylmethyl)-urea] | 2070
O=C(Nc1ccc(F)cc1)N[C@H]1CO[C@H]2[C@@H]1OC[C@@H]2C#Cc1ccsc1 [Example 306, 1-(4-Fluoro-phenyl)-3-((3S,3aR,6S,6aR)-6-thiophen-3-ylethynyl-hexahydro-furo[3,2-b]furan-3-yl)-urea] | 192
Cc1cccc(CNC(=O)N[C@H]2CO[C@@H]3[C@@H]2OC[C@H]3/C=C\c2ccccc2)c1 [Example 327, 1-(3-Methyl-benzyl)-3-[(3S,3aR,6R)-6-((S)-(Z)-styryl)-hexahydro-furo[3,2-b]furan-3-yl]-urea] | 98
O=C(Nc1ccccc1)NC1COC2C(CCc3ccsc3)COC12 [Example 363, 1-Phenyl-3-[(3S,3aR,6R)-6-((S)-2-thiophen-3-yl-ethyl)-hexahydro-furo[3,2-b]furan-3-yl]-urea] | 25
Cn1ccnc1-c1ccc(O[C@H]2CO[C@H]3[C@@H]2OC[C@@H]3NC(=O)NC2CCCCC2)cc1 [Example 32, 1-Cyclohexyl-3-{(3S,3aR,6S,6aS)-6-[4-(1-methyl-1H-imidazol-2-yl)-phenoxy]-hexahydro-furo[3,2-b]furan-3-yl}-urea] | 3
Cc1cccc(CNC(=O)NC2COC3C(CCc4ccccc4)COC23)c1 [Example 359, 1-(3-Methyl-benzyl)-3-[(3S,3aR,6R)-6-((S)-phenethyl)-hexahydro-furo[3,2-b]furan-3-yl]-urea] | 111
CCc1nc(C)ccc1O[C@H]1CO[C@H]2[C@@H]1OC[C@@H]2NC(=O)NC1CCCCC1 [Example 38, 1-Cyclohexyl-3-[(3S,3aR,6S,6aS)-6-(2-ethyl-6-methyl-pyridin-3-yloxy)-hexahydro-furo[3,2-b]furan-3-yl]-urea] | 1
Cc1cc(Cl)ncc1O[C@H]1CO[C@H]2[C@@H]1OC[C@@H]2NC(=O)NC1CCCCC1 [Example 66, 1-[(3S,3aR,6S,6aS)-6-(6-Chloro-4-methyl-pyridin-3-yloxy)-hexahydro-furo[3,2-b]furan-3-yl]-3-cyclohexyl-urea] | 2

SMILES | IC50 [nM]
O=C(NC1CCCCC1)N[C@H]1CO[C@H]2[C@@H]1OC[C@@H]2Oc1ccccc1CN1CCOCC1 [Example 123, 1-Cyclohexyl-3-[(3S,3aR,6S,6aS)-6-(2-morpholin-4-ylmethyl-phenoxy)-hexahydro-furo[3,2-b]furan-3-yl]-urea; trifluoroacetate] | 4
Cc1ncccc1O[C@H]1CO[C@H]2[C@@H]1OC[C@@H]2NC(=O)NC[C@@H]1C[C@@H]2C[C@H]([C@H]1C)C2(C)C [Example 213, 1-[(3S,3aR,6S,6aS)-6-(2-Methyl-pyridin-3-yloxy)-hexahydro-furo[3,2-b]furan-3-yl]-3-((1R,2R,3R,5S)-2,6,6-trimethyl-bicyclo[3.1.1]hept-3-ylmethyl)-urea] | 3
O=C(Nc1ccc2c(c1)CCC2)N[C@H]1CO[C@H]2[C@@H]1OC[C@@H]2/C=C\c1ccsc1 [Example 341, 1-Indan-5-yl-3-[(3S,3aR,6S,6aR)-6-((Z)-2-thiophen-3-yl-vinyl)-hexa-hydro-furo[3,2-b]furan-3-yl]-urea] | 90
O=C(NC1CCCCC1)N[C@H]1CO[C@H]2[C@@H]1OC[C@@H]2Sc1ncc[nH]1 [Example 48, 1-Cyclohexyl-3-[(3S,3aR,6S,6aS)-6-(1H-imidazol-2-ylsulfanyl)-hexa-hydro-furo[3,2-b]furan-3-yl]-urea] | 11
Cc1ncccc1O[C@H]1CO[C@H]2[C@@H]1OC[C@@H]2NC(=O)NC1CCC(C)CC1 (stereo partly drawn) [Example 257, 1-(4-Methyl-cyclohexyl)-3-[(3S,3aR,6S,6aS)-6-(2-methyl-pyridin-3-yloxy)-hexahydro-furo[3,2-b]furan-3-yl]-urea] | 3
O=C(NC1CCCCC1)N[C@H]1CO[C@H]2[C@@H]1OC[C@@H]2Oc1ccc2cc(Br)ccc2c1 [Example 99, 1-[(3S,3aR,6S,6aS)-6-(6-Bromo-naphthalen-2-yloxy)-hexahydro-furo-[3,2-b]furan-3-yl]-3-cyclohexyl-urea] | 12
Cc1cc(C)nc(S[C@H]2CO[C@H]3[C@@H]2OC[C@@H]3NC(=O)NC2CCCCC2)n1 [Example 47, 1-Cyclohexyl-3-[(3S,3aR,6S,6aS)-6-(4,6-dimethyl-pyrimidin-2-ylsulfanyl)-hexahydro-furo[3,2-b]furan-3-yl]-urea] | 51
O=C(Nc1cccc(C(F)(F)F)c1)N[C@H]1CO[C@H]2[C@@H]1OC[C@@H]2C#Cc1ccccc1 [Example 299, 1-((3S,3aR,6S,6aR)-6-Phenylethynyl-hexahydro-furo[3,2-b]furan-3-yl)-3-(3-trifluoromethyl-phenyl)-urea] | 1250
O=C(NC1CCCCC1)N[C@H]1CO[C@H]2[C@@H]1OC[C@@H]2Oc1cccc([N+](=O)[O-])c1 [Example 140, 1-Cyclohexyl-3-[(3S,3aR,6S,6aS)-6-(3-nitro-phenoxy)-hexahydro-furo[3,2-b]furan-3-yl]-urea] | 3
Cc1ncccc1O[C@H]1CO[C@H]2[C@@H]1OC[C@@H]2NC(=O)NCC1CCC(=O)N1 (stereo partly drawn) [Example 201, 1-[(3S,3aR,6S,6aS)-6-(2-Methyl-pyridin-3-yloxy)-hexahydro-furo[3,2-b]furan-3-yl]-3-(5-oxo-pyrrolidin-2-ylmethyl)-urea] | 5790
O=C(NC1CCCCC1)N[C@H]1CO[C@H]2[C@@H]1OC[C@@H]2Oc1ccccn1 [Example 3, 1-cyclohexyl-3-[(3S,3aR,6S,6aS)-6-(pyridin-2-yloxy)-hexahydro-furo[3,2-b]furan-3-yl]-urea] | 12
CCCCOc1ccc(NC(=O)NC2COC3C(C#N)COC23)cc1 (stereo not shown) [Example 380] | 304
Cc1ncccc1O[C@H]1CO[C@H]2[C@@H]1OC[C@@H]2NC(=O)NCc1c(C)n[nH]c1C [Example 222, 1-(3,5-Dimethyl-1H-pyrazol-4-ylmethyl)-3-[(3S,3aR,6S,6aS)-6-(2-methyl-pyridin-3-yloxy)-hexahydro-furo[3,2-b]furan-3-yl]-urea] | 54
Cc1ncccc1O[C@H]1CO[C@H]2[C@@H]1OC[C@@H]2NC(=O)NCCc1ccc(S(C)(=O)=O)cc1 [Example 223, 1-[2-(4-Methanesulfonyl-phenyl)-ethyl]-3-[(3S,3aR,6S,6aS)-6-(2-methyl-pyridin-3-yloxy)-hexahydro-furo[3,2-b]furan-3-yl]-urea] | 262
C[C@@H](NC(=O)N[C@H]1CO[C@H]2[C@@H]1OC[C@@H]2Oc1ccc(F)cc1)c1ccccc1 [Example 162, 1-[(3S,3aR,6S,6aS)-6-(4-Fluoro-phenoxy)-hexahydro-furo[3,2-b]furan-3-yl]-3-((R)-1-phenyl-ethyl)-urea] | 39
